In the supplement of paper PMC11451515:

Assays:
Conditions in all cases: 48 h
P12-Ichikawa [1] = assay: AUC of viability dose-response curve (% viability x log10 dose units); higher = less sensitive
Outline: (§1)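 Leukemia cells adapted to each medium were seeded in 1536-well plates (500 or 1000 cells/well) and given library compounds in DMSO for 48 h at 37°C. The 11 threefold doses spanned 47 μM to 0.79 nM, and CellTiter-Glo One luminescence was normalised per plate to DMSO and cell-free wells before four-parameter log-logistic fitting on log10 dose. Area under the curve was integrated with the trapezoidal rule, scaling curves above full viability and removing curves that failed quality control.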

SEM cells [2] = assay: as above
Outline: as §1

NOMO1 [3] = assay: as above
Outline: as §1

P12-Ichikawa [4] = assay: cell viability relative to DMSO control; higher = less cytotoxic
Outline: (§2)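 NOMO1 or SEM (500 cells/well) or P12-Ichikawa (1000 cells/well) leukemia cells were adapted for at least four passages in each medium. They were seeded in 1536-well plates (5 μl) and pin-dosed with library compounds in DMSO over an 11-point threefold series, 47 μM to 0.79 nM. CellTiter-Glo One luminescence was read after 48 h at 37°C. Viability is the per-plate percentage relative to DMSO wells, with cell-free wells as background.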

SEM cells [5] = assay: as above
Outline: as §2

NOMO1 [6] = assay: as above
Outline: as §2

C[C@@H](Oc1cc(-n2cnc3ccc(CN4CCN(C)CC4)cc32)sc1C(N)=O)c1ccccc1C(F)(F)F
AUC of viability dose-response curve
Conditions	NOMO1 [3]	P12-Ichikawa [1]	SEM cells [2]
HPLM + 10% dialyzed FBS	280	208	233
RPMI 5 mM glucose + 10% FBS	246	202	214
RPMI 5 mM glucose + 10% dialyzed FBS	255	214	234

COc1cc2nc(-c3ccc(N4CCN(C)CC4)cc3)nc(NCCN3CCOCC3)c2cc1OC
AUC of viability dose-response curve
Conditions	NOMO1 [3]	P12-Ichikawa [1]	SEM cells [2]
HPLM + 10% dialyzed FBS	300	340	248
RPMI 5 mM glucose + 10% FBS	336	350	290
RPMI 5 mM glucose + 10% dialyzed FBS	302	345	271

cell viability [%]
Conditions	NOMO1 [6]	P12-Ichikawa [4]	SEM cells [5]
HPLM + 10% dialyzed FBS, 0.000781 µM	115	111	104
HPLM + 10% dialyzed FBS, 0.00234 µM	112	121	111
HPLM + 10% dialyzed FBS, 0.00702 µM	110	109	95.7
HPLM + 10% dialyzed FBS, 0.0211 µM	125	115	102
HPLM + 10% dialyzed FBS, 0.0632 µM	113	109	112
HPLM + 10% dialyzed FBS, 0.19 µM	97.9	110	44.1
HPLM + 10% dialyzed FBS, 0.569 µM	48.8	81.7	11.3
HPLM + 10% dialyzed FBS, 1.71 µM	35	57.9	8.34
HPLM + 10% dialyzed FBS, 5.12 µM	22.6	50	4.72
HPLM + 10% dialyzed FBS, 15.4 µM	18.8	23.2	4.43
HPLM + 10% dialyzed FBS, 46.1 µM	1.8	3.38	2.62
RPMI 5 mM glucose + 10% FBS, 0.000781 µM	102	113	108
RPMI 5 mM glucose + 10% FBS, 0.00234 µM	103	120	115
RPMI 5 mM glucose + 10% FBS, 0.00702 µM	99	108	91
RPMI 5 mM glucose + 10% FBS, 0.0211 µM	94.5	113	111
RPMI 5 mM glucose + 10% FBS, 0.0632 µM	98.7	116	107
RPMI 5 mM glucose + 10% FBS, 0.19 µM	100	111	107
RPMI 5 mM glucose + 10% FBS, 0.569 µM	84	104	41.1
RPMI 5 mM glucose + 10% FBS, 1.71 µM	47	67	14.1
RPMI 5 mM glucose + 10% FBS, 5.12 µM	18.1	36.7	7.04
RPMI 5 mM glucose + 10% FBS, 15.4 µM	9.07	5.75	3.02
RPMI 5 mM glucose + 10% FBS, 46.1 µM	2.08	2.84	2.56
RPMI 5 mM glucose + 10% dialyzed FBS, 0.000781 µM	114	113	114
RPMI 5 mM glucose + 10% dialyzed FBS, 0.00234 µM	111	108	106
RPMI 5 mM glucose + 10% dialyzed FBS, 0.00702 µM	103	118	107
RPMI 5 mM glucose + 10% dialyzed FBS, 0.0211 µM	107	103	102
RPMI 5 mM glucose + 10% dialyzed FBS, 0.0632 µM	111	106	111
RPMI 5 mM glucose + 10% dialyzed FBS, 0.19 µM	95	106	81.7
RPMI 5 mM glucose + 10% dialyzed FBS, 0.569 µM	63.7	96.3	29.3
RPMI 5 mM glucose + 10% dialyzed FBS, 1.71 µM	28.3	65.8	10.7
RPMI 5 mM glucose + 10% dialyzed FBS, 5.12 µM	11.1	22.5	5.08
RPMI 5 mM glucose + 10% dialyzed FBS, 15.4 µM	7.69	5.42	3.57
RPMI 5 mM glucose + 10% dialyzed FBS, 46.1 µM	1.71	2.71	2.59

Cl.Cl.Fc1ccc(C(OCCN2CCN(CCCc3ccccc3)CC2)c2ccc(F)cc2)cc1
AUC of viability dose-response curve
Conditions	NOMO1 [3]	P12-Ichikawa [1]	SEM cells [2]
HPLM + 10% dialyzed FBS	438	470	460
RPMI 5 mM glucose + 10% FBS	457	467	458
RPMI 5 mM glucose + 10% dialyzed FBS	446	465	458

cell viability [%]
Conditions	NOMO1 [6]	P12-Ichikawa [4]	SEM cells [5]
HPLM + 10% dialyzed FBS, 0.000781 µM	120	105	97.4
HPLM + 10% dialyzed FBS, 0.00234 µM	113	104	96
HPLM + 10% dialyzed FBS, 0.00702 µM	127	109	99.3
HPLM + 10% dialyzed FBS, 0.0211 µM	125	112	104
HPLM + 10% dialyzed FBS, 0.0632 µM	139	116	104
HPLM + 10% dialyzed FBS, 0.19 µM	123	109	93.2
HPLM + 10% dialyzed FBS, 0.569 µM	127	109	97.1
HPLM + 10% dialyzed FBS, 1.71 µM	130	113	113
HPLM + 10% dialyzed FBS, 5.12 µM	104	120	111
HPLM + 10% dialyzed FBS, 15.4 µM	93.1	113	99.7
HPLM + 10% dialyzed FBS, 46.1 µM	11.3	78.4	32.4
RPMI 5 mM glucose + 10% FBS, 0.000781 µM	119	114	111
RPMI 5 mM glucose + 10% FBS, 0.00234 µM	116	133	112
RPMI 5 mM glucose + 10% FBS, 0.00702 µM	116	118	111
RPMI 5 mM glucose + 10% FBS, 0.0211 µM	119	123	120
RPMI 5 mM glucose + 10% FBS, 0.0632 µM	111	136	109
RPMI 5 mM glucose + 10% FBS, 0.19 µM	109	126	114
RPMI 5 mM glucose + 10% FBS, 0.569 µM	117	126	103
RPMI 5 mM glucose + 10% FBS, 1.71 µM	113	124	107
RPMI 5 mM glucose + 10% FBS, 5.12 µM	108	122	102
RPMI 5 mM glucose + 10% FBS, 15.4 µM	116	124	115
RPMI 5 mM glucose + 10% FBS, 46.1 µM	18.5	73.9	22.3
RPMI 5 mM glucose + 10% dialyzed FBS, 0.000781 µM	113	115	84.9
RPMI 5 mM glucose + 10% dialyzed FBS, 0.00234 µM	129	121	99.5
RPMI 5 mM glucose + 10% dialyzed FBS, 0.00702 µM	113	119	105
RPMI 5 mM glucose + 10% dialyzed FBS, 0.0211 µM	126	117	118
RPMI 5 mM glucose + 10% dialyzed FBS, 0.0632 µM	123	127	120
RPMI 5 mM glucose + 10% dialyzed FBS, 0.19 µM	135	121	124
RPMI 5 mM glucose + 10% dialyzed FBS, 0.569 µM	112	122	130
RPMI 5 mM glucose + 10% dialyzed FBS, 1.71 µM	118	115	122
RPMI 5 mM glucose + 10% dialyzed FBS, 5.12 µM	122	120	120
RPMI 5 mM glucose + 10% dialyzed FBS, 15.4 µM	96.4	120	110
RPMI 5 mM glucose + 10% dialyzed FBS, 46.1 µM	12.9	62.8	27.9
